Data on one compound can be found in PMC12346692, “SUL-150 Limits Vascular Remodeling and Ventricular Failure in Pulmonary Arterial Hypertension” (International Journal of Molecular Sciences, 2025).

For one assay, the system named is α1-adrenoceptor. More on the design: method as in PMID 30626882. Conditions: no test in this paper; α1 antagonism attributed; cited from earlier work.
Assay [1] deals with PAH rats. As to the kind of experiment: Heart weights and Fulton index at sacrifice. The note with it: ~6 mg·kg^−1·day^−1 i.p. minipump, 28 days. It counts as in vivo, rat. The protocol:
Rats were euthanized under 3–5% isoflurane anesthesia by exsanguination by aorta puncture. Hearts, lungs, and pulmonary arteries were harvested and processed for further analyses. The hearts were weighed and dissected into the left atrium, ventricle, right atrium, and ventricle and septum, which were all individually weighted. The Fulton Index was calculated as: Fulton Index=RV/(LV+IVS) , wherein RV and LV are right and left ventricular weights, respectively, and IVS is the weight of the interventricular septum. The right ventricle was cut in half, and one half was fixed in 3.6% formalin and embedded in paraffin. The other half was snap frozen in liquid nitrogen. The left lung lobe was fixed by filling the airways with 3.6% formalin and embedded in paraffin. The right lung lobe was snap frozen in liquid nitrogen.

Assay [2] has as its system PAH rats. As to the kind of experiment: Histochemistry: pulmonary artery and vessel remodeling, cardiomyocyte hypertrophy, cardiac fibrosis. Type of assay: in vivo, rat. Conditions: ~6 mg·kg^−1·day^−1 i.p. minipump, 28 days. As to the method:
Cross-sectional cardiomyocyte area was determined for approximately 400 cardiomyocytes/sample (range 182–768) using Fiji 2.1.0/1.53c in binary mode with the following particle analyzer settings: circularity 0.25–1.00 and pixel area 300–1000 px^2.
Cardiac fibrosis was measured after picrosirius staining and counterstaining with Weigert’s hematoxylin (both Sigma-Aldrich, St. Louis, MO, USA) following the manufacturer’s instructions. Samples were imaged on a NanoZoomer digital slide scanner (Hammamatsu Photonics, Shizuoka, Japan) at 40× magnification. Interstitial fibrosis (i.e., non-perivascular fibrosis) was quantified using Aperio ImageScope (Leica Biosystems, Nussloch, Germany). Morphology of the intra-acinar pulmonary vessels was assessed after Verhoeff-Von Gieson staining (Sigma-Aldrich, St. Louis, MO, USA). Samples were imaged on a Leica DM2000 microscope at 63× magnification using Leica Image Acquisition software version 4.13 (Leica, Wetzlar, Germany). Pulmonary vessel remodeling was quantified as described previously.

Another assay relates to pulmonary artery rings. Kind of assay: Ex vivo myography of pulmonary artery rings, acute SUL-150 pre-incubation, phenylephrine-induced vasoconstriction. More on the design: species or system rat. Conditions: 10^−4 M SUL-150 pre-incubation. As to the method: The fourth-degree branching intralobar pulmonary arteries were carefully dissected under a Leica S4E stereomicroscope as described before. Arterial ring segments (2 mm length) were mounted in a Mulvany-type wire myograph system (model #610M, Danish Myo Technology, Aarhus, Denmark) using Ø40 µm steel wire. Rings were preserved in myography chambers filled with aerated Krebs buffer (pH 7.4) at 37 °C. After 20 min equilibration, rings were stretched to 1.8 kPa using the DMT Normalization Procedure and allowed to equilibrate for an additional 20 min. Analogue–digital signal conversion was performed using PowerLab 8/30, and a myogram was recorded in PowerLab Chart v 5.3 (AD Instruments, Oxford, UK). To assess the acute effects of SUL-150 on vasoconstriction, arterial rings were pre-constricted with 60 mM KCl and, following washout and stabilization, incubated with vehicle (0.1% DMSO) or SUL-150 (10^−4 M) for 20 min. Next, constriction responses to phenylephrine (phenylephrine, Sigma-Aldrich, St. Louis, MO, USA) were recorded in the dose range of 3 × 10^−9 to 3 × 10^−5 M. To assess the chronic effects of SUL-150 treatment, a similar protocol was followed, leaving out the preincubation with vehicle or SUL-150. Isometric responses were calculated as % of maximal KCl-induced constriction, and dose–response curves were recorded to determine the efficacy (Emax) and potency (EC50) of phenylephrine to induce vasoconstriction.

For assay [3], the system named is neonatal rat cardiomyocytes. As to the kind of experiment: In vitro hypertrophy reporter assay in phenylephrine-treated cardiomyocytes. It counts as cell-based. As to the method: Cultures of neonatal rat cardiomyocytes were prepared from 1–3-day-old Wistar rats and adenovirally transformed with hypertrophy reporter construct as described elsewhere. Cardiomyocytes were pre-incubated with SUL-150 (3 × 10^−5 M) or vehicle for 30 min and subsequently stimulated with phenylephrine in the dose range of 10^−8 to 10^−4 M for 24 h. Cells were lysed in passive lysis buffer (Promega, Madison, WI, USA), and […] intensity of the lysate was recorded in an EnVision 2102 plate reader (Perkin Elmer, Waltham, MA, USA).

In assay [4] the test system is right ventricle of PAH rats. Kind of assay: Right ventricle mtDNA copy number, radical scavenging, lipid peroxidation and ATP. The note with it: ~6 mg·kg^−1·day^−1 i.p. minipump, 28 days.

SMILES strings stand for the structures. Marks after values point to notes of the source that are not given here.

Take `Cc1c(C)c2c(c(C)c1O)CC[C@](C)(C(=O)N1CCNCC1)O2` [SUL-150, (R)-(6-hydroxy-2,5,7,8-tetramethylchroman-2-yl)(piperazin-1-yl)methanone]: the “pA2 as an α1-adrenoceptor antagonist” value in the assay on α1-adrenoceptor is listed as “≈ 5.4”. Also, in the assay on PAH rats [1], the “Heart weight (relative to body weight)” value is on record as 4.37 ± 0.66 ^a mg·g^−1, the “IVS weight (relative to body weight)” value worked out at 0.81 ± 0.22 mg/g, the “LA weight (relative to body weight)” value was 0.23 ± 0.11 ^a mg·g^−1 and the “LV weight (relative to body weight)” value was 1.60 ± 0.29 ^a mg·g^−1. For the same compound, in the assay with PAH rats [1], the “RA weight (relative to body weight)” value was 0.38 ± 0.12 ^a mg·g^−1 and the “RV weight (relative to body weight)” value was 1.23 ± 0.31 ^a mg·g^−1. For the same compound, the “Fulton Index” value in the assay with PAH rats [1] (RV/(LV+IVS)) is 0.51 ± 0.09 ^a. Also, in the assay on PAH rats [2], the “cardiomyocyte cross-sectional area (right ventricle)” value was 246.1 ± 39.4 µm^2; the cross-sectional vascular area came out at 888.2 ± 146.7 µm^2; the “interstitial fibrosis in the cardiac tissue” value is 9.3 % of tissue area; the “intra-acinar pulmonary vessels, cross-sectional lumen area” value was 365.7 ± 101.1 µm^2. In the assay with PAH rats [2], the “intra-acinar vessel occlusion score” value was determined as 39.0 ± 7.4%, the “pulmonary artery wall thickness” value stood at 57.6 ± 13.0 µm and the “wall–lumen ratio” value came to 0.42 ± 0.12 µmwall·µmlumen^−1. For the same compound, the “percentage of non-perfusable vessels” value in the assay on PAH rats [2] (vessels with a luminal area < 40 µm^2) worked out at 4.45 ± 2.62%. Besides, in the assay on pulmonary artery rings (pulmonary artery rings of PAH rats (day 21 post-MCT)), the “Emax of phenylephrine-induced vasoconstriction after SUL-150 pre-incubation” value was 11.03 % of max. Moreover, the “Emax of phenylephrine-induced vasoconstriction after SUL-150 pre-incubation” value in the assay with pulmonary artery rings (pulmonary artery rings of sham rats, % of maximal KCl-induced constriction) was 15.6 % of max. In addition, the “Emax of phenylephrine in hypertrophy reporter with SUL-150 co-treatment” value in assay [3] (SUL-150 3 × 10^−5 M pre-incubated 30 min, phenylephrine 24 h) worked out at 2.36 RFU. Also, in assay [3] (SUL-150 3 × 10^−5 M versus vehicle), the “reduction in phenylephrine efficacy in hypertrophy reporter” value is 40%. For the same compound, in assay [4], the “ATP level of the right ventricle” value is 272.2 ± 26.6 pmol/mg. Besides, in assay [4] (result in words), the “endogenous radical scavenging activity in right ventricle” value is recorded as “maintained” and the “lipid peroxidation level in right ventricle” value is “decreased lipid peroxidation level to those of sham rats”.
